Assay results from ChEMBL document CHEMBL2073899, “Quantitative distinctions of active site molecular recognition by P-glycoprotein and cytochrome P450 3A4” (Chem Res Toxicol, 2001).

Biological target: ATP-dependent translocase ABCB1 (Homo sapiens, UniProt P08183)
Assay: TP_TRANSPORTER: inhibition of Daunorubicin efflux in NIH-3T3-G185 cells

Sequence of ATP-dependent translocase ABCB1 (P08183 whole entry): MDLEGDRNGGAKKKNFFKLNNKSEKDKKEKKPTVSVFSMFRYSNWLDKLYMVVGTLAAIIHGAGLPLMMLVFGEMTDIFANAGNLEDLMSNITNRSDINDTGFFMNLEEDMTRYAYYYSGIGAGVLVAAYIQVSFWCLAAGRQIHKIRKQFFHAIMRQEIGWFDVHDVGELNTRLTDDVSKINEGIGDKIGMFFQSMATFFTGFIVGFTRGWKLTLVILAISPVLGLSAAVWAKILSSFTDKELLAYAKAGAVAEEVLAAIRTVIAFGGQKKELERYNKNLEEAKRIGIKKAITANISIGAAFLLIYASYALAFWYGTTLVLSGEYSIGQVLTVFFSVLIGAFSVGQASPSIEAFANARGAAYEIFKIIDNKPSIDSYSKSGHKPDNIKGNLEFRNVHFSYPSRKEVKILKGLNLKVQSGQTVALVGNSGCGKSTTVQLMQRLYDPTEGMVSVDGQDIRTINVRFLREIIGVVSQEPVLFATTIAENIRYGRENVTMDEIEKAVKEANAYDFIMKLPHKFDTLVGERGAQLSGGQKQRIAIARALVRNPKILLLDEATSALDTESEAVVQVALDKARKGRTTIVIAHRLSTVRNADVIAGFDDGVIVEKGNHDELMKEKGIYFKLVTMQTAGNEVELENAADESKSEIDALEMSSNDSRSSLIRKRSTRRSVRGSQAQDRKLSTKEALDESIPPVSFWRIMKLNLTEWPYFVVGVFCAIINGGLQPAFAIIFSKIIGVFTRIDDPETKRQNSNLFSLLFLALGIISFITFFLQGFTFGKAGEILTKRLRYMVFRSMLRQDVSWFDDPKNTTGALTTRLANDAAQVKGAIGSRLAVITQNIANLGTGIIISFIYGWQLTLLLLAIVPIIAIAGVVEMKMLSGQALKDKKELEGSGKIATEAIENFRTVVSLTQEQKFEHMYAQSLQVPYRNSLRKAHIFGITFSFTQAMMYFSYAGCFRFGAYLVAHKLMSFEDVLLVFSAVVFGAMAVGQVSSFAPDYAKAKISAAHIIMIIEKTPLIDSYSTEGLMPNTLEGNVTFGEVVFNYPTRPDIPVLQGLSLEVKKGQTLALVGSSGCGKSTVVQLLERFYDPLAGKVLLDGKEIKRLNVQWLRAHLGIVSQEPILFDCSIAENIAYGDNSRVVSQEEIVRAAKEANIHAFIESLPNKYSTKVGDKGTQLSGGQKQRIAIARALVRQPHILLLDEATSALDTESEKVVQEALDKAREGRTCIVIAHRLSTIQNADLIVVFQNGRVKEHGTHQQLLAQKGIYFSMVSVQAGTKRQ

Row | Compound | IC50
1 | CC(C)[C@@H]1NC(=O)[C@H](C)OC(=O)[C@@H](C(C)C)NC(=O)[C@@H](C(C)C)OC(=O)[C@H](C(C)C)NC(=O)[C@H](C)OC(=O)[C@@H](C(C)C)NC(=O)[C@@H](C(C)C)OC(=O)[C@H](C(C)C)NC(=O)[C@H](C)OC(=O)[C@@H](C(C)C)NC(=O)[C@@H](C(C)C)OC1=O [VALINOMYCIN] | 3.2 µM
2 | COc1ccc(CCN(C)CCCC(C#N)(c2cc(OC)c(OC)c(OC)c2)C(C)C)cc1OC (stereo unspecified) [GALLOPAMIL] | 3.2 µM
3 | COc1ccc(-c2cc(=O)c3c(OC)c(OC)c(OC)c(OC)c3o2)cc1OC [NOBILETIN] | 11.5 µM
4 | COC(=O)C1=C(C)NC(C)=C(C(=O)OC)C1c1ccccc1[N+](=O)[O-] [NIFEDIPINE] | 113 µM

Next, values leading:

Row | IC50 | Compound
5 | 0.9 µM | COc1ccc(CCNCCCC(C#N)(c2ccc(OC)c(OC)c2)C(C)C)cc1OC (stereo unspecified) [NORVERAPAMIL]
6 | 23.6 µM | CC(=O)S[C@@H]1CC2=CC(=O)CC[C@]2(C)[C@H]2CC[C@@]3(C)[C@@H](CC[C@@]34CCC(=O)O4)[C@H]12 [SPIRONOLACTONE]
